Source: patent publication US6008226A, “Substituted N-arylmethyl and heterocylylmethyl-1H-pyrazolo[3,4-b]quinolin-4-amines and compositions and methods of use thereof” (Sanofi-Synthelabo, priority 1998, dated 1999)
pIC50: −log10 of the molar value. Counter-ions that a name gives are not always drawn.

Assays:
[1] = molecular target: T1, cGMP-PDE V (Homo sapiens, UniProt O76074); assay: c-GMP-PDE V inhibitory activity (cyclic nucleotide hydrolysis by isolated PDE isozymes); type: biochemical, various animal species and man; details: for inhibition at 10 µM: read-out: Percent Inhibition cGMP-PDE V
T1 construct: The cGMP-PDE and other PDE isozymes were isolated from cardiovascular tissues (heart and aorta); from tissue; host or cells: cardiovascular tissues (heart and aorta) of various animal species and man
Protocol: The cGMP-PDE and other PDE isozymes were isolated from cardiovascular tissues (heart and aorta) of various animal species and man by anion-exchange and affinity chromatography as described by Silver et al., Sec. Messeng. Phos. 13: 13-25, 1991; PDE activity, in the presence and absence of test compounds was determined essentially as described by Thompson et al., Adv. Cyclic Nucleotide Res. 10: 69-92. To determine the potency and selectivity of compounds as PDE inhibitors, compounds are screened for their effect on cyclic nucleotide hydrolysis at 10 μM. If ≥50% inhibition of PDE activity is observed, an IC50 value (concentration of compound causing 50% reduction in PDE activity) and corresponding 95% confidence intervals are generated. The IC50 values are calculated from concentration-response curves as described by Tallarida and Murray, Manual of Pharmacologic Calculations with Computer Programs, Procedure 8, Graded Dose-response, pp. 14-19, Springer-Verlag, New York, 1981.

[2] = molecular target: T1, cGMP-PDE V; assay: as above; type: biochemical, various animal species and man; details: read-out: Percent Inhibition cGMP-PDE V
[3] = system: Spontaneously hypertensive rats; assay: reversing or reducing nitrate-induced tolerance in spontaneously hypertensive rats; type: in vivo, rat
Protocol: Spontaneously hypertensive rats (17-25 weeks of age) are made nitroglycerin tolerant by repeated administration of high doses of nitroglycerin (100 mg/kg, s.c., 3 times/day for 3 consecutive days). To confirm tolerance challenge doses of nitroglycerin are administered intravenously at doses ranging from 1-300 μg/kg and the maximum change in mean arterial pressure (MAP) for each dose is recorded. Groups of tolerant rats are then pretreated with the compounds of the invention (tolerant pretreated group) or with vehicle (0.05 N NaOH) (tolerant vehicle pretreated group) intravenously 5-10 minutes prior to administration of challenge doses of nitroglycerin. The administration of challenge doses of nitroglycerin to non-tolerant rats (the non-tolerant group) causes a dose-dependent decrease in MAP of between 10 to 40 mm Hg. […] It is expected that the administration of challenge doses of nitroglycerin to tolerant rats which have been pretreated with the compounds of the invention (tolerant pretreated group) should result in varying degrees of restoration of the hypotensive response. The area under the dose-MAP curve is then calculated for the non-tolerant group and for the tolerant vehicle pretreated group and the tolerant pretreated group. The percent reversal of nitrate-inducedtolerance is then calculated as follows:
Percent Reversal=(AUCtol-pretreated -AUCtol-veh)/(AUCnontol […]

[4] = system: interferon; details: Crenshaw et al.; cited from earlier work
[5] = system: Spontaneously hypertensive rats (SHR); assay: antihypertensive activity in conscious spontaneously hypertensive rats (SHR), iv; type: in vivo, rat; details: for ED25: Rattus norvegicus, 5 min, iv, 5 minutes after each cumulative dose, read-out: SHR iv ED25, mean arterial pressure
Protocol: After a 2 day recovery from surgery, three baseline blood pressure measurements were made at 5 min intervals in conscious SHR. Compounds to be tested or vehicle were then administered intravenously in a dose-dependent manner (0.3-10 mg base/kg) while arterial pressure was recorded continuously on a polygraph. The mean arterial pressure response was measured 5 minutes after the administration of each dose of the test compound and the next dose given in a cumulative dose fashion. The response to each dose of the test compound was calculated as the difference from the mean of the three baseline measurements.

SMILES | inhibition at 10 µM [1] | inhibition at 1 µM [2] | pIC50 [1] | further results
CCn1ncc2c(NCc3ccc(OCCN4CCOCC4)cc3)c3ccccc3nc21 [15(c), 1-ethyl-N-[4-[2-(4-morpholinyl)ethoxy]phenylmethyl]-1H-pyrazolo[3,4-b]quinolin-4-amine] | 34% | 20% | – | inhibition at 0.1 µM [2]: 0%
CCn1nc(C)c2c(NCc3ccccc3)c3ccccc3nc21 [9(d), 1-ethyl-3-methyl-N-(phenylmethyl)-1H-pyrazolo[3,4-b]quinolin-4-amine·HCl] | – | – | 6.77 | –
CCn1ncc2c(NCc3ccccc3)c3ccc(OC)cc3nc21 [5(e), 1-ethyl-7-methoxy-N-(phenylmethyl)-1H-pyrazolo[3,4-b]quinolin-4-amine] | 85% | 54% | – | inhibition at 0.1 µM [2]: 14%
O=[N+]([O-])OCC(CO[N+](=O)[O-])O[N+](=O)[O-] [nitroglycerin] | – | – | – | dose-dependent decrease in MAP ([3]; non-tolerant rats, nitroglycerin challenge 1-300 μg/kg iv): 10 to 40 mm Hg; hypotensive response to challenge doses of nitroglycerin ([3]; tolerant vehicle pretreated group, 1-300 μg/kg iv): significant reduction of the hypotensive response
Cc1nn(C)c2nc3ccccc3c(NCCCNC34CC5CC(CC(C5)C3)C4)c12 [N-(1,3-dimethyl-1H-pyrazolo[3,4-b]quinolin-4-yl)-N'-tricyclo[3.3.1.1^3,7]dec-1-yl-1,3-propane diamine] | – | – | – | activity in the interferon assay [4]: inactive
Cc1nn(C)c2nc3ccccc3c(NC3CC3)c12 [N-cyclopropyl, N-cyclopropyl-1,3-dimethyl-1H-pyrazolo[3,4-b] quinolin-4-amine] | – | – | – | activity in the interferon assay [4]: inactive
Cc1nn(C)c2nc3ccccc3c(NCc3ccccc3N(C)C)c12 [N-[[2-(dimethylamino)phenyl]methyl]-1,3-dimethyl-1H-pyrazolo[3,4-b] quinolin-4-amines] | – | – | – | activity in the interferon assay [4]: inactive
CCn1ncc2c(NCc3ccc(O)cc3)c3ccccc3nc21 [18(a), 1-ethyl-N-(4-hydroxyphenylmethyl)-1H-pyrazolo[3,4-b]quinolin-4-amine CH3 SO3 H] | – | – | 7.04 | –
CCn1ncc2c(NCc3ccco3)c3ccccc3nc21 [Example 16, 1-ethyl-N-(2-furanylmethyl)-1H-pyrazolo[3,4-b]quinolin-4-amine] | – | – | – | SHR iv % change in mean arterial pressure ([5]; 10 mg/kg iv): -16%
Cc1nn(C)c2nc3ccccc3c(NCc3cccnc3)c12 [N-(3-pyridinylmethyl), N-(3-pyridinylmethyl)-1,3-dimethyl-1H-pyrazolo[3,4-b] quinolin-4-amine] | – | – | – | activity in the interferon assay [4]: inactive
CCn1ncc2c(NCCc3ccccc3)c3ccccc3nc21 [2(c), 1-ethyl-N-(phenylethyl)-1H-pyrazolo[3,4-b]quinoline-4 amine] | – | – | 5.38 | ED25 [5]: 16.5 mg/kg
CCn1ncc2c(NCc3ccccc3)c3ccccc3nc21 [1(a), 1-ethyl-N-(phenylmethyl)-1H-pyrazolo[3,4-b]quinolin-4-amine] | – | – | 6.68 | ED25 [5]: 25 mg/kg
CCn1ncc2c(NCc3ccc(O)cc3)c3ccccc3nc21 [18(b), 1-ethyl-N-(4-hydroxyphenylmethyl)-1H-pyrazolo[3,4-b]quinolin-4-amine] | 78% | 82% | – | inhibition at 0.1 µM [2]: 63%
CC(C)n1ncc2c(NCc3ccccc3)c3ccccc3nc21 [4(c), 1-isopropyl-N-(phenylmethyl)-1H-pyrazolo[3,4-b]quinolin-4-amine] | – | – | 6.74 | –
Cc1nn(C)c2nc3ccccc3c(NC34CC5CC(CC(C5)C3)C4)c12 [N-tricyclo[3.3.1.1^3,7]dec-1-yl, N-tricyclo[3.3.1.1^3,7]dec-1-yl-1,3-dimethyl-1H-pyrazolo[3,4-b] quinolin-4-amine] | – | – | – | activity in the interferon assay [4]: inactive
CCn1ncc2c(NCc3ccc(OC)cc3)c3cc(OC)ccc3nc21 [23(c), 1-ethyl-6-methoxy-N-(4-methoxyphenylmethyl)-1H-pyrazolo[3,4-b]quinolin-4-amine·CH3 SO3 H] | – | – | 7.85 | SHR iv % change in mean arterial pressure ([5]; 1 mg/kg iv): -7%; SHR iv % change in mean arterial pressure ([5]; 3 mg/kg iv): -4%

Now from value to compound, other results behind:

inhibition at 10 µM [1] | inhibition at 1 µM [2] | pIC50 [1] | SMILES | further results
94% | 75% | – | CCn1ncc2c(NC3CCc4ccccc43)c3ccccc3nc21 (stereo not shown) [Example 22, 1-ethyl-N-(1-indanyl)-1H-pyrazolo[3,4-b]quinolin-4-amine·CH3 SO3 H] | inhibition at 0.1 µM [2]: 34%
– | – | 6.35 | CCn1ncc2c(NCc3cccc(OC)c3)c3ccccc3nc21 [Example 11, 1-ethyl-N-(3-methoxyphenylmethyl)-1H-pyrazolo[3,4-b]quinolin-4-amine] | –
75% | 43% | – | CCn1ncc2c(NCc3cccnc3)c3ccccc3nc21 [Example 19, 1-ethyl-N-(3-pyridinylmethyl)-1H-pyrazolo[3,4-b]quinolin-4-amine ·2CH3 SO3 H] | inhibition at 0.1 µM [2]: 10%
– | – | 5.94 | Cc1nn(C)c2nc3ccccc3c(NCc3ccccc3)c12 [Example 12(c), 1,3-dimethyl-N-(phenylmethyl)-1H-pyrazolo[3,4-b]quinolin-4-amine] | –
– | – | 5.90 | CCn1ncc2c(N(C)Cc3ccccc3)c3ccccc3nc21 [Example 20, 1-ethyl-N-(methyl)-N-(phenylmethyl)-1H-pyrazolo[3,4-b]quinolin-4-amine·CH3 SO3 H] | –
– | – | 6.82 | CCn1ncc2c(NCc3cccc(O)c3)c3ccccc3nc21 [Example 13, 1-ethyl-N-(3-hydroxyphenylmethyl)-1H-pyrazolo [3,4-b]quinolin-4-amine] | –
– | – | 7.05 | CCn1ncc2c(NCc3ccc(OC)cc3)c3ccccc3nc21 [Example 3, 1-ethyl-N-(4-methoxyphenylmethyl)-1H-pyrazolo[3,4-b]quinolin-4-amine·HCl·1/2H2 O] | –
97% | 58% | – | CCn1ncc2c(NCc3ccccn3)c3ccccc3nc21 [Example 21, 1-ethyl-N-(2-pyridinylmethyl)-1H-pyrazolo[3,4-b]quinolin-4-amine-2CH3SO3 H] | inhibition at 0.1 µM [2]: 27%
57% | 0% | – | CCn1ncc2c(NCc3ccc(C#N)cc3)c3ccccc3nc21 [Example 10, 1-ethyl-N-(4-cyanophenylmethyl)-1H-pyrazolo[3,4-b]quinolin-4-amine] | –
85% | 50% | – | CCn1ncc2c(NCc3ccccc3)c3ccc(O)cc3nc21 [Example 6, 1-ethyl-7-hydroxy-N-(phenylmethyl)-1H-pyrazolo[3,4-b]quinolin-4-amine] | inhibition at 0.1 µM [2]: 17%
50% | 5% | – | CCn1ncc2c(NCc3ccncc3)c3ccccc3nc21 [Example 8, 1-ethyl-N-(4-pyridinylmethyl)-1H-pyrazolo[3,4-b]quinolin-4-amine] | inhibition at 0.1 µM [2]: 0%
– | – | 6.74 | CCn1ncc2c(NCc3ccc(OC)c(OC)c3)c3ccccc3nc21 [Example 7, 1-ethyl-N-(3,4-dimethoxyphenylmethyl)-1H-pyrazolo[3,4-b]quinolin-4-amine] | –
– | – | 6.92 | CCn1ncc2c(NCc3ccc(O)cc3)c3cc(O)ccc3nc21 [Example 24, 1-ethyl-6-hydroxy-N-(4-hydroxyphenylmethyl)-1H-pyrazolo[3,4-b]quinolin-4-amine-CH3 SO3 H] | SHR iv % change in mean arterial pressure ([5]; 1 mg/kg iv): -10%; SHR iv % change in mean arterial pressure ([5]; 3 mg/kg iv): -9%; SHR iv % change in mean arterial pressure ([5]; 10 mg/kg iv): -15%
– | – | 7.07 | CCn1ncc2c(NCc3cccc(O)c3)c3ccccc3nc21 [Example 14, 1-ethyl-N-(3-hydroxyphenylmethyl)-1H-pyrazolo[3,4-b]quinolin-4-amine·2 CH3 SO3 H] | –
